# Experimental data: patent US11203591B2, “Substituted 6-azabenzimidazole compounds” (Gilead Sciences, Inc., priority 2018, dated 2021)
# Biological target: human HPK1 (MAP4K1) (Homo sapiens (Human), UniProt Q92918)
# Assay: HPK1 IC50 Assay (TR-FRET peptide phosphorylation)
# Type: biochemical
# Settings: 0.15 nM HPK1, 10 μM ATP, 1 μM STK S1 peptide substrate; geometric mean
# Description: The enzymatic activity of human HPK1 (MAP4K1) was monitored in a biochemical assay in the presence or absence of compounds and using a synthetic peptide substrate. An increase in phosphorylation of the peptide by HPK1 was indicative of its kinase activity.
# Recombinant HPK1 kinase domain produced via baculovirus infection of insect cells was obtained from Proteros (Proteros Biostructures #PR-0322) and was pre-activated in the presence of 2 mM ATP (Sigma-Aldrich, cat #GE27-2056-01) and 2 mM magnesium chloride for 16 hours at 4° C. The protein reaction mixture was then loaded to a desalting column (Thermo Fisher Scientific, Cat #89889) to remove excess ATP. HPK1 was eluted with buffer containing 20 mM Tris (2-Amino-2-(hydroxymethyl)propane-1,3-diol) pH 8.0, 150 mM NaCl, 2 mM dithiothreitol and 5% glycerol, and was frozen at −80° C. for later use. HPK1 dual phosphorylation was confirmed by mass spectrometry.
# Ten nanoliters of test compounds dissolved in DMSO at various concentrations were dispensed into a 384-well ProxiPlate (PerkinElmer #6008289). Five microliters of a solution of recombinant HPK1 diluted in HPK1 kinase assay buffer (50 mM BES [N,N-Bis(2-hydroxyethyl)-2-aminoethanesulfonic acid], pH 7.0; 10 mM magnesium chloride; 0.01% Triton X-100; 1 mM dithiothreitol; 0.01% bovine serum albumin; 0.1 mM sodium orthovanadate) was added to the compound-containing plate and was incubated for 15 minutes at 25° C. Five microliters of a mixture of ATP (Sigma-Aldrich #A6559) and peptide substrate STK S1 (Cisbio #61ST1BLC) diluted in HPK1 kinase assay buffer was then added to start the reaction. Final concentrations were 0.15 nM for HPK1, 10 μM for ATP, and 1 μM for the STK S1 peptide substrate. The reaction mixture was incubated at 25° C. for 3 hours and was stopped with the addition of 10 μl of an EDTA (Ethylenediaminetetraacetic acid)-containing detection buffer (Cisbio #62SDBRDF) supplemented with Europium cryptate-labeled anti-phospho-serine/threonine antibodies (Cisbio #62ST1PEJ) and XL665-labeled streptavidin (Cisbio #610SAXLG). The mixture was incubated for 16 hours at room temperature and peptide phosphorylation was measured by time-resolved fluorescence energy transfer (665 nm/620 nm) on an Envision plate reader (PerkinElmer).
# Data in Table 1 were normalized based on positive (staurosporine) and negative (DMSO) controls. Least squares curve fittings were performed using a four-parameter variable slope nonlinear regression model. IC50 is defined as the concentration of compound required to inhibit 50% of maximum phosphorylation. IC50 values from multiple experiments were averaged by geometric mean and the standard deviation was calculated.
# Sequence of human HPK1 (MAP4K1) (Q92918 17-274): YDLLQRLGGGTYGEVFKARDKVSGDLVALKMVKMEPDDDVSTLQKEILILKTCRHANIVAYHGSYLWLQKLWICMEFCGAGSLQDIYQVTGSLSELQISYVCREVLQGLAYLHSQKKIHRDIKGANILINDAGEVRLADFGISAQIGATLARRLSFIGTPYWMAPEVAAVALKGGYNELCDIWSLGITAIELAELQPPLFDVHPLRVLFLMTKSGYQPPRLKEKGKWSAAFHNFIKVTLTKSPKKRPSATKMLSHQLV
row,Compound,IC50 [nM]
1,"N-(1-(difluoromethyl)cyclopropyl)-5-((6-(3,3-dimethyl-1-((1s,3s)-3-methyl-3-(piperidin-1-yl)cyclobutyl)-2-oxo-2,3-dihydro-1H-pyrrolo[3,2-b]pyridin-6-yl)-3-isopropyl-3H-imidazo[4,5-c]pyridin-4-yl)amino)-2,3,4-trifluorobenzamide [Example 280]",0.05
2,"CC(C)n1cnc2cc(-c3ccc4c(c3)N([C@H]3C[C@@](C)(N5CCCCC5)C3)C(=O)C4(C)C)nc(Nc3cc(C(=O)NCC(F)F)c(Cl)cc3F)c21 [Example 289, 2-chloro-N-(2,2-difluoroethyl)-5-((6-(3,3-dimethyl-1-((1s,3s)-3-methyl-3-(piperidin-1-yl)cyclobutyl)-2-oxoindolin-6-yl)-3-isopropyl-3H-imidazo[4,5-c]pyridin-4-yl)amino)-4-fluorobenzamide]",0.07

# Same assay, conditions: recombinant HPK1 kinase domain 0.15 nM, 10 μM ATP, 1 μM STK S1 peptide; geometric mean of multiple experiments
row,Compound,IC50 [nM]
1,CCC1(CC)C(=O)N([C@H]2C[C@@H](N3CCCCC3)C2)c2cc(-c3cc4ncn(C(C)C)c4c(Nc4ccc(C)c(C(=O)NC)c4)n3)ccc21 [Example 45],0.1
2,Cc1ccc(Nc2nc(-c3ccc4c(c3)N([C@H]3C[C@@H](N5CCCCC5)C3)C(=O)C4(C)C)cc3ncn(C(C)C)c23)cc1C(=O)NCC(F)F [Example 20],0.05
3,CCn1cnc2cc(-c3ccc4c(c3)N([C@H]3C[C@@H](N5CCCCC5)C3)C(=O)C43CCN(C(C)=O)CC3)nc(Nc3ccc(C)c(C(=O)NC)c3)c21 [Example 49],0.1
4,CC(=O)N1CCC2(CC1)C(=O)N([C@H]1C[C@@H](N3CCCCC3)C1)c1cc(-c3cc4ncn(C(C)C)c4c(Nc4cc(C(=O)NC(C)(C)C)c(C)cc4F)n3)ccc12 [Example 59],0.3
5,Cc1ccc(Nc2nc(-c3ccc4c(c3)N([C@H]3C[C@@H](N5CCC[C@H](O)C5)C3)C(=O)C4(C)C)cc3ncn(C4CC4)c23)cc1C(N)=O [Example 36],0.1
6,Cc1cc(F)c(Nc2nc(-c3ccc4c(c3)N([C@H]3C[C@@H](N5CCCCC5)C3)C(=O)C4(C)C)cc3ncn(C(C)C)c23)cc1C(=O)NC1(C(F)F)CC1 [Example 65],0.1
7,"Cc1ccc(Nc2nc(-c3ccc4c(c3)N([C@H]3C[C@@H](NC(=O)C(C)(C)C)C3)C(=O)C4(C)C)cc3ncn(C(C)C)c23)cc1C(N)=O [Example 135, 5-((6-(3,3-dimethyl-2-oxo-1-((1s,3s)-3-pivalamidocyclobutyl)indolin-6-yl)-3-isopropyl-3H-imidazo[4,5-c]pyridin-4-yl)amino)-2-methylbenzamide]",0.6
8,CC[C@@H](C)NC(=O)c1cc(Nc2nc(-c3ccc4c(c3)N([C@H]3C[C@@H](N5CCCCC5)C3)C(=O)C43CCN(C(C)=O)CC3)cc3ncn(C(C)C)c23)c(F)cc1C [Example 87],0.3
9,Cc1ccc(Nc2nc(-c3ccc4c(c3)N([C@H]3C[C@@H](N5CCCCC5)C3)C(=O)C43CCOCC3)cc3ncn(C(C)C)c23)cc1C(=O)NC1CCC1 [Example 23],0.2
10,CNC(=O)c1cc(Nc2nc(-c3ccc4c(c3)N([C@H]3C[C@@H](N5CCCCC5)C3)C(=O)C43CCN(C4COC4)CC3)cc3ncn(C4CC4)c23)ccc1C [Example 173],0.08

# More lines, now with the values ahead:
row,IC50 [nM],Compound
1,0.1,CNC(=O)c1cc(Nc2nc(-c3ccc4c(c3)N([C@H]3C[C@@H](N5CCCC6(CC6)C5)C3)C(=O)C43CCN(C(C)=O)CC3)cc3ncn(C4CC4)c23)ccc1C [Example 166]
2,0.1,"Cc1cc(F)c(Nc2nc(-c3cnc4c(c3)N([C@H]3C[C@@](C)(N5CCOCC5)C3)C(=O)C4(C)C)cc3ncn(C(C)C)c23)cc1C(=O)NC1(C(F)F)CC1 [Example 215, N-(1-(Difluoromethyl)cyclopropyl)-5-((6-(3,3-dimethyl-1-((1s,3s)-3-methyl-3-morpholinocyclobutyl)-2-oxo-2,3-dihydro-1H-pyrrolo[3,2-b]pyridin-6-yl)-3-isopropyl-3H-imidazo[4,5-c]pyridin-4-yl)amino)-4-fluoro-2-methylbenzamide]"
3,0.1,CNC(=O)c1cc(Nc2nc(-c3ccc4c(c3)N([C@H]3C[C@@H](N5CCC[C@@H](F)C5)C3)C(=O)C43CCN(C(C)=O)CC3)cc3ncn(C(C)C)c23)ccc1C [Example 162]
4,0.08,"Cc1c(C(=O)NC2(C(F)F)CC2)cc(Nc2nc(-c3cnc4c(c3)N([C@H]3C[C@@](C)(N5CCCCCC5)C3)C(=O)C4(C)C)cc3ncn(C(C)C)c23)c(F)c1F [Example 229, 5-((6-(1-((1s,3s)-3-(Azepan-1-yl)-3-methylcyclobutyl)-3,3-dimethyl-2-oxo-2,3-dihydro-1H-pyrrolo[3,2-b]pyridin-6-yl)-3-isopropyl-3H-imidazo[4,5-c]pyridin-4-yl)amino)-N-(1-(difluoromethyl)cyclopropyl)-3,4-difluoro-2-methylbenzamide]"
5,0.1,"Cc1c(C(=O)NC2(C(F)F)CC2)cc(Nc2nc(-c3cnc4c(c3)N([C@H]3C[C@@](C)(N5CCCCC5)C3)C(=O)C4(C)C)cc3ncn(C(C)C)c23)c(F)c1F [Example 185, N-(1-(difluoromethyl)cyclopropyl)-5-((6-(3,3-dimethyl-1-((1s,3s)-3-methyl-3-(piperidin-1-yl)cyclobutyl)-2-oxo-2,3-dihydro-1H-pyrrolo[3,2-b]pyridin-6-yl)-3-isopropyl-3H-imidazo[4,5-c]pyridin-4-yl)amino)-3,4-difluoro-2-methylbenzamide]"
6,0.1,Cc1ccc(Nc2nc(-c3ccc4c(c3)N([C@H]3C[C@@H](N5CC(C)(C)C5)C3)C(=O)C4(C)C)cc3ncn(C(C)C)c23)cc1C(=O)NC1CC1 [Example 121]
7,0.05,"CC(C)n1cnc2cc(-c3cnc4c(c3)N([C@H]3C[C@@](C)(N5CCC6CC6C5)C3)C(=O)C4(C)C)nc(Nc3cc(C(=O)NCC(F)F)c(Cl)c(F)c3F)c21 (some centres unmarked) [Example 256, 5-((6-(1-((1s,3s)-3-(3-azabicyclo[4.1.0]heptan-3-yl)-3-methylcyclobutyl)-3,3-dimethyl-2-oxo-2,3-dihydro-1H-pyrrolo[3,2-b]pyridin-6-yl)-3-isopropyl-3H-imidazo[4,5-c]pyridin-4-yl)amino)-2-chloro-N-(2,2-difluoroethyl)-3,4-difluorobenzamide]"
8,1.1,CC(=O)N1CC2(C1)C(=O)N([C@H]1C[C@@H](N3CCCCC3)C1)c1cc(-c3cc4ncn(C(C)C)c4c(Nc4cc(C(=O)NC(C)C)c(C)cc4F)n3)ccc12 [Example 179]
9,0.09,"CCNC(=O)c1ccc(F)c(Nc2nc(-c3ccc4c(c3)N([C@H]3C[C@@](C)(N5CCCCC5)C3)C(=O)C4(C)C)cc3ncn(C(C)C)c23)c1 [Example 240, 3-((6-(3,3-Dimethyl-1-((1s,3s)-3-methyl-3-(piperidin-1-yl)cyclobutyl)-2-oxoindolin-6-yl)-3-isopropyl-3H-imidazo[4,5-c]pyridin-4-yl)amino)-N-ethyl-4-fluorobenzamide]"
10,0.1,CC(C)NC(=O)c1cc(Nc2nc(-c3ccc4c(c3)N([C@H]3C[C@@H](N5CCCCC5)C3)C(=O)C4(C)C)cc3ncn(C(C)C)c23)ccc1Cl [Example 115]
11,0.1,"CC(C)n1cnc2cc(-c3cnc4c(c3)N(C3CC(C)(N5CCC6C[C@@H]6C5)C3)C(=O)C4(C)C)nc(Nc3cc(C(=O)NC4(C(F)F)CC4)c(Cl)c(F)c3F)c21 (some centres unmarked) [Example 262, 5-((6-(1-((1s,3s)-3-(3-azabicyclo[4.1.0]heptan-3-yl)-3-methylcyclobutyl)-3,3-dimethyl-2-oxo-2,3-dihydro-1H-pyrrolo[3,2-b]pyridin-6-yl)-3-isopropyl-3H-imidazo[4,5-c]pyridin-4-yl)amino)-2-chloro-N-(1-(difluoromethyl)cyclopropyl)-3,4-difluorobenzamide]"
